This note sets out measurements from patent publication US20090325986A1, “Deazapurine Analogs of 1'-Aza-L-Nucleosides” (priority 2005, published 2009).

Holding throughout (assay): biochemical
Experiment [1] has as its target plasmodial PNPase (Plasmodium falciparum, UniProt Q8I3X4). An excerpt:
(§1) The inhibition constants KI are the dissociation constants for the enzyme-inhibitor complex measured from initial reaction rates. For many, but not all, immucillin inhibitors, a slow-onset of inhibition then occurs consequent upon a time dependent conformational change in the enzyme that leads to tighter binding characterised by the constant KI* (J. F. Morrison and C. T. Walsh, Adv, Enzymol. Relat. Areas Mol. Biol., 1988, 61, 201-310).

In experiment [2] the target is bovine PNPase (Bos taurus, UniProt P55859). To be noted: for Ki: B. taurus PNPase.
Chain of bovine PNPase (P55859 whole entry): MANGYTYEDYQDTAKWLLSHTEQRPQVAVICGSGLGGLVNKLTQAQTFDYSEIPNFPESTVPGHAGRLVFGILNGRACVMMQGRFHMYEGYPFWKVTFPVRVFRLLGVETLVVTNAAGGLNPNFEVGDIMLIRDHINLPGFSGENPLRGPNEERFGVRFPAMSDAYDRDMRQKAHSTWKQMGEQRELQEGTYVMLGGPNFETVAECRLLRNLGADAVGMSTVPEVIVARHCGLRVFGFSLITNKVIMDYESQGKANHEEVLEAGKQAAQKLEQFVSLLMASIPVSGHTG
Source text: as §1

In experiment [3] the target is human PNPase (Homo sapiens, UniProt P00491). To be noted: for Ki: H. sapiens PNPase.
Chain of human PNPase (P00491 whole entry): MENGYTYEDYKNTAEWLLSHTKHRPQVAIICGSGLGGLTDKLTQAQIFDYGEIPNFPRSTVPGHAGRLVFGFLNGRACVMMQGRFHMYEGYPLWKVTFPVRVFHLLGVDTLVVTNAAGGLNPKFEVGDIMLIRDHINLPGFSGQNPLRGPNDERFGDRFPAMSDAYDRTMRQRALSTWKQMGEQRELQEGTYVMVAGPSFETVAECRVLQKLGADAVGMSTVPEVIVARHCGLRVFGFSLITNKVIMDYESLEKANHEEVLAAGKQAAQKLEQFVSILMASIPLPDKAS
Source text: as §1

Setting [4] is: Ki, Plasmodium falciparum PNPase, dissociation constant of enzyme-inhibitor complex from initial reaction rates.
Where [5] appears, read: Ki*, tighter binding after slow-onset inhibition.
The mark [6] stands for this setting: Ki, dissociation constant of enzyme-inhibitor complex from initial reaction rates.

Chain of plasmodial PNPase (Q8I3X4 whole entry): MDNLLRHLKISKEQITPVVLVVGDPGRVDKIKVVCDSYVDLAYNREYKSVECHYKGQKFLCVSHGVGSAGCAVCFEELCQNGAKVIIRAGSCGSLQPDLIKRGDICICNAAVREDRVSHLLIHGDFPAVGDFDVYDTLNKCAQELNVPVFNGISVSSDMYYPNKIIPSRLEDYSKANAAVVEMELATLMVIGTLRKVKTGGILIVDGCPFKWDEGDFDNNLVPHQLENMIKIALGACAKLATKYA

Usually Ki stands for the equilibrium dissociation constant of an inhibitor or competing ligand from its target. Low values mean a stronger hold on the target, high ones a looser hold on the target. In the case of `O=c1[nH]cnc2c(CN3C[C@@H](CO)[C@H](O)C3)c[nH]c12` [[(−)-10], (3S,4S)-1-[(9-Deazahypoxanthin-9-yl)methyl]-4-(hydroxymethyl)pyrrolidin-3-ol], the Ki in experiment [1] (Ki*, Plasmodium falciparum PNPase, tighter binding after slow-onset inhibition) was found to be 80 ± 7 nM; in experiment [1] (setting [4]), 1700 ± 300 nM; in experiment [2] (setting [5]), 0.5 ± 0.1 nM; in experiment [2] (setting [6]), 19 ± 5 nM; in experiment [3] (setting [5]), 0.68 ± 0.26 nM; in experiment [3] (setting [6]), 1.5 ± 0.1 nM. The type of inhibition entry in experiment [1] (Plasmodium falciparum PNP), in experiment [2] (bovine PNP) and in experiment [3] (human PNP) was “slow onset tight binding inhibitor” in each case.

Regarding `O=c1[nH]cnc2c(CN3C[C@H](CO)[C@@H](O)C3)c[nH]c12` [[(+)-10], reference compound], the results for the Ki in experiment [1] (setting [4]), in experiment [2] (setting [5]) and in experiment [2] (setting [6]) were 0.5 ± 0.04 nM, 0.11 ± 0.014 nM and 2.1 ± 0.3 nM, respectively. The “Ki*” value in experiment [1] (Plasmodium falciparum PNPase, tighter binding after slow-onset inhibition) is recorded as “Not observed”.
